US9475806B2, “Complement factor B inhibitors and uses there of” (Novartis AG, priority 2013, dated 2016)
Like-named read-outs stand apart in the source and are kept apart here.

What was measured:
[1] = target: T1, Recombinant human factor B (Homo sapiens (Human), UniProt P00751)
[2] = target: T1, Recombinant human factor B; assay: biochemical

T1 sequence (P00751 26-764): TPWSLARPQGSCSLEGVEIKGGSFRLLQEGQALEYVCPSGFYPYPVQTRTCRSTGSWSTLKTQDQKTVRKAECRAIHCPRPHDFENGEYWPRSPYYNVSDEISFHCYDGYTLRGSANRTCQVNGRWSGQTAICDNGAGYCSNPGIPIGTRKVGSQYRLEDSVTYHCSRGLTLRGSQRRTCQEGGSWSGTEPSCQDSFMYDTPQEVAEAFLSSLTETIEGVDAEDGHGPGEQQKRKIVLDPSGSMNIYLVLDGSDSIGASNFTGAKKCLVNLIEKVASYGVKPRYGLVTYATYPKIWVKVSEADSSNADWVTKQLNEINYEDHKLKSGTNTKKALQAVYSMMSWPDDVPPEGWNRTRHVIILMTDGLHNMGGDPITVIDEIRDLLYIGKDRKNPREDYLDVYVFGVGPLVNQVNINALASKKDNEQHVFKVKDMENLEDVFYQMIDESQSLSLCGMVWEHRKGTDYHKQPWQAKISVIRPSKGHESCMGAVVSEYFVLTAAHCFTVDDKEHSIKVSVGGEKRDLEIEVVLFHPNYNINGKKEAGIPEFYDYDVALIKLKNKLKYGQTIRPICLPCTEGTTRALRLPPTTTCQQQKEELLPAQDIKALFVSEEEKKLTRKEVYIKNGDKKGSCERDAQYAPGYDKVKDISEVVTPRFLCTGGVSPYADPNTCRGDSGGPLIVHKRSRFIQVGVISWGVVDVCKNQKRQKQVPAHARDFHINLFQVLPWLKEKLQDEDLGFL

| Structure (SMILES) | IC50 [1] | IC50 [2] |
| --- | --- | --- |
| Cc1cc(C2CC2)c(C(C)(O)c2nc3cc(C#N)cnc3[nH]2)c2cc[nH]c12 (racemic) [Example 17-C, (±)-2-(1-(5-Cyclopropyl-7-methyl-1H-indol-4-yl)-1-hydroxyethyl)-3H-imidazo[4,5-b]pyridine-6-carbonitrile] | – | 60 nM |
| Cc1cc(C2CC2)c(C(O)c2nc3cc(C#N)cnc3[nH]2)c2cc[nH]c12 (racemic) [Example 16-G, (±)-2-((5-Cyclopropyl-7-methyl-1H-indol-4-yl)(hydroxy)methyl)-3H-imidazo[4,5-b]pyridine-6-carbonitrile] | – | 460 nM |
| COc1cc(C)c2[nH]ccc2c1C(C)(C)c1nc2cc(C#N)cnc2[nH]1 [Example 12-D, 2-(2-(5-Methoxy-7-methyl-1H-indol-4-yl)propan-2-yl)-3H-imidazo[4,5-b]pyridine-6-carbonitrile] | – | 40 nM |
| Cc1cc(C2CC2)c(C(N)(c2nc3cc(C#N)cnc3[nH]2)C(F)(F)F)c2cc[nH]c12 (racemic) [Example 17-G, (±)-2-(1-Amino-1-(5-cyclopropyl-7-methyl-1H-indol-4-yl)-2,2,2-trifluoroethyl)-3H-imidazo[4,5-b]pyridine-6-carbonitrile] | – | 90 nM |
| CCc1cc(C)c2[nH]ccc2c1C(C)(NC)c1nc2cc(C#N)cnc2[nH]1 (racemic) [Example 15-D, (±)-2-(1-(5-Ethyl-7-methyl-1H-indol-4-yl)-1-(methylamino)ethyl)-3H-imidazo[4,5-b]pyridine-6-carbonitrile] | – | 540 nM |
| COc1cc(C)c2[nH]ccc2c1C(O)c1nc2ncc(C#N)cc2[nH]1 (stereo not drawn) [6-C b) (+)] | 700 nM | – |

Continued, in another order:

| IC50 [1] | Structure (SMILES) | IC50 [2] |
| --- | --- | --- |
| 3140 nM | CNC(C)(c1nc2cc(C#N)cnc2[nH]1)c1c(OC)cc(C)c2[nH]ccc12 (stereo not drawn) [11-B b) (+)] | – |
| 1380 nM | COc1cc(C)c2[nH]ccc2c1C(C)(N)c1nc2cc(C#N)cnc2[nH]1 (stereo not drawn) [10-B b) (+)] | – |
| 50 nM | COc1cc(C)c2[nH]ccc2c1C(C)(O)c1nc2cc(C#N)cnc2[nH]1 (stereo not drawn) [7-D b) (+)] | – |
| 720 nM | COc1cc(C)c2[nH]ccc2c1C(C)(OC)c1nc2cc(C#N)cnc2[nH]1 (stereo not drawn) [8-B b) (+)] | – |
| 290 nM | COc1cc(C)c2[nH]ccc2c1C(N)(c1nc2cc(C#N)cnc2[nH]1)C(F)(F)F (stereo not drawn) [5-B b) (+)] | – |
| 2350 nM | CCc1cc(C)c2[nH]ccc2c1C(O)(c1nc2cc(C#N)cnc2[nH]1)C(F)(F)F (stereo not drawn) [14-I b) (+)] | – |
| 1520 nM | CNC(c1nc2cc(C#N)cnc2[nH]1)(c1c(OC)cc(C)c2[nH]ccc12)C(F)(F)F (stereo not drawn) [9-D b) (+)] | – |
